The results in this text go back to US11918626B2, “Vasointestinal peptide receptor inhibitors for enhancement of gastrointestinal health” (New York University, priority 2019, dated 2024).

The target in one test is T1, hM4Di (Homo sapiens, UniProt P08173, A203G/Y113C).
T1 construct: host or cells: VIP-producing enteric neurons of Vip-IRES-Cre x hM4Di fl-stop-fl transgenic mice (in vivo)
T1 sequence (P08173 1-479 Y113C/A203G): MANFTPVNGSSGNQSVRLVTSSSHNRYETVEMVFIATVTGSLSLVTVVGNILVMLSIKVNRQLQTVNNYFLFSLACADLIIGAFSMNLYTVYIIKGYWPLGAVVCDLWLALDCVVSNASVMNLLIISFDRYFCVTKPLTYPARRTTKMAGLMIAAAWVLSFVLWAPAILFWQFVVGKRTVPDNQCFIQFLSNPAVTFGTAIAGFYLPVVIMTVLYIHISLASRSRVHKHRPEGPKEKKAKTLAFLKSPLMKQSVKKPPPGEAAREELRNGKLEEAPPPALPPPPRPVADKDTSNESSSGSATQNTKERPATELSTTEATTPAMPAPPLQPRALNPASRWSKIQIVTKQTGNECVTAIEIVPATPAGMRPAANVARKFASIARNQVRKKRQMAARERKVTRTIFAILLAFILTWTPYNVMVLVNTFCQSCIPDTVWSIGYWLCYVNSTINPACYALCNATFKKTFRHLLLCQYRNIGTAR
The test can be described thus: VIPen inhibition with inhibitory DREADD (hM4Di), 24 h. In kind it is in vivo, mice. As to conditions: versus vehicle. How it is done: (§1) To perform chemogenetic activation or inhibition of VIPen, we bred VIP^IRES-Cre homozygous mice to hM3Dq^fl-stop-fl mice (DREADD for activation) or hM4Di^fl-stop-fl bp-mice (DREADD for inhibition), generating VIP^IRES-Cre hM3Dq^fl-stop-fl (VIPen activation) and VIP^IRES-Cre hM3Dq^fl-stop-flhM4Di^fl-stop-fl mice (VIPen inhibition). To perform 24 h activation of the DREADDs, mice were treated with Clozapine-N-Oxide (CNO, 1 mg/Kg intraperitoneally, TOCRIS) each 12 h. […] To perform activation of the DREADDs during Citrobacter rodentium infection, mice were treated daily with CNO (1 mg/Kg, intraperitoneally) from day 1 to day 4 after infection. […]
(§2) Live/dead fixable blue (ThermoFisher) or DAPI (ThermoFisher) were used to exclude dead cells. […] Flow cytometric analysis was performed on an LSR II (BD Biosciences) or an Aria II (BD Biosciences) and analyzed using FlowJo software version 10 (Tree Star).
(§3) TRNA isolation of ileal epithelial cells was performed using TRIzol following manufacturer's instructions (Invitrogen) followed by DNase I (Qiagen) treatment and cleanup with RNeasy MinElute kit (Qiagen) following manufacturer protocols. cDNA was generated using SuperScript™ IV First-Strand Synthesis System (ThermoFisher). […] Quantitative PCR was performed using the Hot Start-IT SYBRGreen (Affymetrix) on the Roche real-time PCR system (Roche 480). […]

For another test, the target named is T2, hM3Dq (Homo sapiens, UniProt P20309, A239G/Y149C).
T2 construct: host or cells: VIP-producing enteric neurons of Vip-IRES-Cre x hM3Dq fl-stop-fl transgenic mice (in vivo)
T2 sequence (P20309 whole entry Y149C/A239G): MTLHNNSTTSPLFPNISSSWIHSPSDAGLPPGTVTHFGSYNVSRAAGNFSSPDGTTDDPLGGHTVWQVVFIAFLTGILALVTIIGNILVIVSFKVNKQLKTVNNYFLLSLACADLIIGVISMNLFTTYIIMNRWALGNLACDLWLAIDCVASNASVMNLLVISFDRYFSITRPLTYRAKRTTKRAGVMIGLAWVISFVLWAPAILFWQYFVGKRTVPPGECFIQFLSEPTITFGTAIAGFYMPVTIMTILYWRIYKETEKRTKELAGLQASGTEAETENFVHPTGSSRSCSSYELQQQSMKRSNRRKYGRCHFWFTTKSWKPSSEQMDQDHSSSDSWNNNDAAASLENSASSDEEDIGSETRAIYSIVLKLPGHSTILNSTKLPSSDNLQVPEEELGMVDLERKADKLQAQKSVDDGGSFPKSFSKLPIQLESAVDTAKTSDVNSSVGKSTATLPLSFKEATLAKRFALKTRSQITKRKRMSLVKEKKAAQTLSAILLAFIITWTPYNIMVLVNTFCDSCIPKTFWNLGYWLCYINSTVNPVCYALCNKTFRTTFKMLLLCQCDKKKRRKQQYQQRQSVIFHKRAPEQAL
The experiment in a line: VIPen activation with activating DREADD (hM3Dq), 24 h. The format is in vivo, mice. Particulars: following VIPen activation, versus vehicle. As to the method: as §1, §2, §3

For test [1], the system named is C. rodentium. The test can be described thus: C. rodentium infection of Vip-IRES-Cre hM3Dq mice (VIPen activation). As to conditions: for bacterial dissemination (translocation) induced by VIPen activation / mortality induced by VIPen activation: 250 pg/mouse/day, C. rodentium-infected hM3Dq mice with VIPen activation. The format is in vivo, Citrobacter rodentium. As to the method:
(§4) To perform chemogenetic activation or inhibition of VIPen, we bred VIP^IRES-Cre homozygous mice to hM3Dq^fl-stop-fl mice (DREADD for activation) or hM4Di^fl-stop-fl bp-mice (DREADD for inhibition), generating VIP^IRES-Cre hM3Dq^fl-stop-fl (VIPen activation) and VIP^IRES-Cre hM3Dq^fl-stop-flhM4Di^fl-stop-fl mice (VIPen inhibition). To perform 24 h activation of the DREADDs, mice were treated with Clozapine-N-Oxide (CNO, 1 mg/Kg intraperitoneally, TOCRIS) each 12 h. […] To perform activation of the DREADDs during Citrobacter rodentium infection, mice were treated daily with CNO (1 mg/Kg, intraperitoneally) from day 1 to day 4 after infection.
(§5) C. rodentium strain DBS100 (ATCC51459; American Type Culture Collection) was grown at 37° C. in LB broth to OD600 reading between 0.5 and 0.7. VIP^IRES-CrehM3Dq^fl-stop-fl (VIPen activation) and C57BL/6 mice were inoculated with 200 μl of a bacterial suspension (2×10^9 CFU) by oral gavage. VIP^IRES-Cre hM3Dq^fl-stop-flhM4Di^fl-stop-fl mice (VIPen inhibition) were inoculated with 200 μl of a bacterial suspension (4×10^10 CFU) by oral gavage. For DREADD experiments, CNO treatment started at 1 day post-infection (d.p.i.) until 4 d.p.i. Mice were followed the next 12 days post-infection (d.p.i.) to measure survival rate. At 9 d.p.i. fecal pellets were collected and the mice dissected to harvest spleen and liver. Samples were weighted and minced on sterile deionized water with Triton 0.1% and filtered on a 70 μm cell strainer. The filtered samples were used to measure C. rodentium burden with serial dilutions (triplicates) on MacConkey agar plates.

Test [2] deals with C. rodentium. The test can be described thus: C. rodentium infection of Vip-IRES-Cre hM4Di mice (VIPen inhibition). In kind it is in vivo, Citrobacter rodentium. Particulars: 1 mg/Kg daily 1-4 d.p.i., 4×10^10 CFU, 9 d.p.i., mice positive/total. How it is done: as §4
as §5, with “Samples were weighted and minced on sterile deionized water with Triton 0.1% and filtered on a 70 μm cell strainer. The filtered samples were used to measure C. rodentium burden with serial dilutions (triplicates) on MacConkey agar plates.” left out

A further test concerns ILC3. The experiment in a line: Pilot experiments with CNO in C57BL/6 mice. The format is in vivo. As to conditions: 1 mg/Kg intraperitoneally each 12 h, C57BL/6 mice without DREADD, data not shown.
A further test addresses T3, VIPR2 (Mus musculus, UniProt P41588).
T3 construct: endogenous in cells; host or cells: primary CCR6+ ILC3 sorted from small-intestine lamina propria of C57BL/6 mice
T3 sequence (P41588 23-437): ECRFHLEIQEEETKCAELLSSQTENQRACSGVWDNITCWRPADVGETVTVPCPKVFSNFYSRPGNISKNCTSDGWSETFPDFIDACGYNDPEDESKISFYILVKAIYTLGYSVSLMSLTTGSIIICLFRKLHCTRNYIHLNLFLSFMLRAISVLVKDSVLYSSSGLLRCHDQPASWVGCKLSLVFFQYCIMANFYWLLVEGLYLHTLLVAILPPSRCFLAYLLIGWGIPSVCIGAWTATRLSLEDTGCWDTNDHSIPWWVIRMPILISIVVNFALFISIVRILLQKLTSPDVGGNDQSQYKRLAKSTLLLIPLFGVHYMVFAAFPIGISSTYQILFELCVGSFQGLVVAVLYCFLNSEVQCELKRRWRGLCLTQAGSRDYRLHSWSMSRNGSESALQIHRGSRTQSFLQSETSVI
The experiment in a line: ILC3 in vitro cell culture with VIPR2 ligands, IL-22 and Sca-1 by flow cytometry. In kind it is cell-based, mice. As to conditions: IL-23 100 pg/mL, 12 h, different concentrations of ligand. As to the method: CCR6^+ and CCR6^neg ILC3 (DAPI^negCD3^negCD11c^negCD14^negCD19^negTCRβ^negTCRγ^negNK1.19KLRG1^negCD127^+CD90.2^+) were isolated from small intestine LPLs of C57BL/6 mice using the ARIA II FACS Sorter (BD Biosciences). ILC3 were cultured at 37° C. in flat bottom 96 well plates (10^4 cells/well) in RPMI supplemented with 10% heat-inactivated FBS (Hyclone), 50 U penicillin-streptomycin (Hyclone), 2 mM glutamine (Hyclone), 10 mM HEPES (Hyclone), 1 mM sodium pyruvate (Hyclone) and 50 μM β-mercaptoethanol (Gibco). ILC3 were stimulated with IL-23 (100 pg/mL, R&D systems) and/or VIPR2 ligands (BAY-559837: 1-100 nM, and VIP: 1 nM, […]), washed, incubated in complete media in the presence of Golgi Plug (BD Bioscience) for 4 h (37° C.), and stained for membrane extracellular markers in Staining Buffer (PBS FBS2% EDTA 5 mM) and for intracellular markers using Cytofix/Cytoperm buffer set following manufacturer's protocol (BD Biosciences). Acquisition of cytometric parameters was performed on an LSRII (BD Biosciences). All data were analyzed using FlowJo Software Version 10 (Tree Star).
as §2
A general note: Flow cytometry measures light scatter and fluorescence of single cells or particles in a stream.

[3] abbreviates: 1 mg/Kg daily 1-4 d.p.i., 2×10^9 CFU, 9 d.p.i., mice positive/total.
Setting [4] is: listed as recombinant murine IL-22.

`C[N+]1([O-])CCN(C2=Nc3cc(Cl)ccc3Nc3ccccc32)CC1` [CNO, Clozapine-N-oxide]: the “RegIIIγ mRNA expression in the IECs” value at hM4Di (after VIPen inhibition, 24 h) is on record as “increased”. Further, on hM4Di (ileum, 24 h following VIPen inhibition), the “frequency of IL-22-producing CCR6+ ILC3” value was “higher frequency”. In addition, at hM3Dq, the “IL-22+ cells among the CCR6+ ILC3” value is “fewer” and the “RegIIIγ mRNA in IECs” value is “lower”. Also, in the test with C. rodentium [1] (setting [3]), the “Positive for C. rodentium: liver” value was 9/9 and the “Positive for C. rodentium: spleen” value was 9/9. Further, in the test on C. rodentium [2], the “Positive for C. rodentium: liver” value is 1/7 and the “Positive for C. rodentium: spleen” value was 1/7. Further, the ILC3 function result in the test on ILC3 is “does not affect”.
On to vasoactive intestinal peptide [VIP], for which the “IL-23-induced Sca-1 expression on CCR6+ ILC3” value with VIPR2 is “does not modulate”.

B1: rmIL-22: recombinant murine IL-22 (protein, UniProt Q9JJY9 34-179, looked up)
Interleukin-22: LPVNTRCKLEVSNFQQPYIVNRTFMLAKEASLADNNTDVRLIGEKLFRGVSAKDQCYLMKQVLNFTLEDVLLPQSDRFQPYMQEVVPFLTKLSNQLSSCHISGDDQNIQKNVRRLKETVKKLGESGEIKAIGELDLLFMSLRNACV
Consider B1, for which the “bacterial dissemination (translocation) induced by VIPen activation” value is on record as “protects against increase” with C. rodentium [1] and “reversed the effect” with C. rodentium [1] (setting [4]). In addition, the “mortality induced by VIPen activation” value with C. rodentium [1] is on record as “protects against increase”; with C. rodentium [1] (setting [4]), “reversed the effect”.
